Experimental data published in article PMC3948622, “Docking, Synthesis and Antiproliferative Activity of N-Acylhydrazone Derivatives Designed as Combretastatin A4 Analogues” (PLoS ONE, 2014).
≈ marks a conversion by molar mass, not a printed value. Where two headings read alike, the source gives them in different places.

Assays:
[1] = Aqueous solubility assay by ultraviolet spectroscopy; type: physicochemical; settings: water (saturated aqueous solution), thermodynamic from solid, 2 hours at 37°C, read-out: Aq. Solubility
Procedure: Ultraviolet spectroscopy was performed using Femto spectrophotometer. The wavelength used in solubility assay was determined by the -λ max characteristic of each compound. Spectra were analyzed in Femtoscan software. Mass spectrometry was obtained by positive ionization at Bruker AmaZon SL and data analyzed in Compass 1.3.SR2 software.
The solubility assay was performed considering the absorptivity of compounds in ultraviolet spectroscopy as described by Schneider and coworkers. The assay wavelength was determined by the λ max characteristic of each compound.
Saturated aqueous solutions were prepared (0.01 mg/mL) and were kept under stirring for 2 hours at 37°C. The supernatant was filtered in 0,45 µm filters and transferred to a quartz cuvette (10 mm) to spectra acquisition.
Solubility was determined by linear regression using as graph plots, solutions prepared by dilutions of the original solution in methanol. The data were obtained in triplicates and the mean values were used to the graph plots. The correlation coefficient (R^2) values were between 0.9972 and 0.9999.

HL-60 (human leukemia) = assay: In vitro antiproliferative MTT assay, HL-60; type: cell-based; settings: for IC50: Homo sapiens, HL-60; for SI Lymphocyte/ HL-60: IC50 for human lymphocytes/IC50 for cancer cell line
Procedure: (§1) The antiproliferative activity of compounds 5a–r was determined based on an MTT assay and using CA-4 as standard against the tumor cell lines: HL-60 (human leukemia), SF-295 (human glioblastoma), MDA-MB435 (melanoma), PC3M (prostate cancer), OVCAR-8 (ovaries adenocarcinoma), NCI-H258M (pulmonary bronchio-alveolar carcinoma) and HCT-8 (adenocarcinoma ileocecal) (Table 2). To determine the selectivity index of compounds 5a–r, their antiproliferative profile was also evaluated toward human lymphocytes (Table 2).
(§2) Compounds (0.009–5 µg/mL) were tested for cytotoxic activity against selected cancer cell lines: SF-295 (glioblastoma), HCT-8 (colon), MDAMB-435 (melanoma), HL60 (leukemia), PC3M (prostate cancer), OVCAR-8 (ovaries adenocarcinoma) and NCI-H258M (pulmonary bronchio-alveolar carcinoma). All cell lines were kindly obtained from the National Cancer Institute (Bethesda, MD, USA).Tumor cell proliferation was quantified through the ability of living cells to reduce the yellow dye 3-(4,5-dimethyl-2-thiazolyl)-2,5-diphenyl-2H-tetrazolium bromide (MTT, Sigma Aldrich)) to a purple formazan product and absorbance was measured at 595 nm (DTX-880, Beckman Coulter).

[2] = tested on: SF-295 (human glioblastoma); assay: In vitro antiproliferative MTT assay, SF-295; type: cell-based; settings: for IC50: Homo sapiens, SF-295, read-out: IC50 SF295; for SI Lymphocyte/ SF-295: IC50 for human lymphocytes/IC50 for cancer cell line
Procedure: as §1, §2

[3] = tested on: HCT-8 (adenocarcinoma ileocecal); assay: In vitro antiproliferative MTT assay, HCT-8; type: cell-based; settings: for IC50: Homo sapiens, HCT-8; for SI Lymphocyte/ HCT-8: IC50 for human lymphocytes/IC50 for cancer cell line
Procedure: as §1, §2

MDA-MB435 (melanoma) [4] = assay: In vitro antiproliferative MTT assay, MDA-MB435; type: cell-based; settings: IC50 for human lymphocytes/IC50 for cancer cell line
Procedure: as §1, §2

PC3M (prostate cancer) = assay: In vitro antiproliferative MTT assay, PC3M; type: cell-based; settings: for IC50: Homo sapiens, PC-3M, Table 2, MTT; for SI Lymphocyte/ PC3M: IC50 for human lymphocytes/IC50 for cancer cell line
Procedure: as §1, §2

[5] = tested on: OVCAR-8 (ovaries adenocarcinoma); assay: In vitro antiproliferative MTT assay, OVCAR-8; type: cell-based; settings: for IC50: Homo sapiens, OVCAR-8, Table 2, MTT; for SI Lymphocyte/ OVCAR-8: IC50 for human lymphocytes/IC50 for cancer cell line
Procedure: as §1, §2

[6] = tested on: NCI-H358M (pulmonary bronchio-alveolar carcinoma); assay: In vitro antiproliferative MTT assay, NCI-H358M; type: cell-based; settings: for SI Lymphocyte/ NCI-H358M: IC50 for human lymphocytes/IC50 for cancer cell line; for IC50: NCI-H358M, Table 2, MTT
human lymphocytes = assay: In vitro antiproliferative assay, human lymphocytes; type: cell-based; settings: Lymphocyte, Table 2
Procedure: as §1
To investigate the selective cytotoxic activity of the N-acylhydrazones derivatives (5a–r), their antiproliferative potency was also assessed toward human lymphocytes and the results were compared to the data from CA-4 ([…]). The selectivity index (SI), which was the IC50 for human lymphocytes/IC50 for cancer cell lines after treatment with CA-4 and N-acylhydrazones (5a–r), was calculated, as depicted in Table 3. […] The best comparative selectivity indices (CA-4 vs 5b) were obtained from the SF-295 (SI = 13), MDA-MB435 (SI = 42) and NCI-H258M (SI = 9.5) tumor cell lines, and the worst results were found for OVCAR-8 (SI = 0.5).

MDA-MB435 (melanoma) [7] = assay: In vitro antiproliferative MTT assay, MDA-MB435; type: cell-based; settings: Homo sapiens, MDA-MB-435
tumor cell lines = assay: In vitro antiproliferative MTT assay, tumor cell lines (summary over the panel); type: cell-based; settings: HL-60, SF296, HCT-8 and MDA-MB435 tumor cells
Procedure: as §1, §2

Structure (SMILES) | solubility at 2 h [1] | IC50 (HL-60 (human leukemia); Table 2, MTT) | SI Lymphocyte/ HL-60 (HL-60 (human leukemia)) | IC50 ([2]; Table 2, MTT) | SI Lymphocyte/ SF-295 [2] | IC50 ([3]; Table 2, MTT) | SI Lymphocyte/ HCT-8 [3] | SI Lymphocyte/ MDA-MB345 (MDA-MB435 (melanoma) [4]) | IC50 (PC3M (prostate cancer)) | SI Lymphocyte/ PC3M (PC3M (prostate cancer)) | IC50 [5] | SI Lymphocyte/ OVCAR-8 [5] | SI Lymphocyte/ NCI-H358M [6] | IC50 [6] | IC50 (human lymphocytes) | melting point | IC50 (MDA-MB435 (melanoma) [7]; Table 2, MTT) | IC50 (HL-60 (human leukemia); Table 4) | IC50 ([2]; Table 4) | IC50 ([3]; Table 4) | also measured
COc1cc(C(=O)N/N=C/c2ccc3c(c2)OCO3)cc(OC)c1OC [Compound 5h, (E)-N′-(benzo[d][1], [3]dioxol-5-ylmethylene)-3,4,5-trimetoxybenzohydrazide] | 1.34 µg/mL (≈ 3.74 µM) | 3.07 µM | 0.43±0.01 | 0.86 µM | 1.47±0.02 | 55.8 µM | 0.02±0.002 | 13.17±1.37 | 1.14 µM | 1.14±0.06 | 1.09 µM | 1.16±0.04 | 0.62±0.02 | 2.15 µM | 1.31 µM | 222 to 223 °C | 0.11 µM |  |  |  | 
COc1cc(/C=N/NC(=O)c2cc(OC)c(OC)c(OC)c2)cc(OC)c1OC [Compound 5i, (E)-3,4,5-trimethoxy-N′-(3,4,5-trimethoxybenzylidene)benzohydrazide] | 0.0894 µg/mL (≈ 0.221 µM) | > 25 µM | 1 | > 25 µM | 1 | > 25 µM | 1 | 1 | > 25 µM | 1 | > 25 µM | 1 | 1 | > 25 µM | > 61.8 µM | 232 °C | > 25 µM |  |  |  | 
COc1cc(C(=O)N/N=C/c2coc3ccccc3c2=O)cc(OC)c1OC [Compound 5j, (E)-3,4,5-trimethoxy-N′-((4-oxo-4H-chromen-3-yl)methylene)benzohydrazide] | 0.783 µg/mL (≈ 2.05 µM) | > 25 µM | 1 | > 25 µM | 1 | 23.4 µM | 2.8 | 1 | > 25 µM | 1 | > 25 µM | 1 | 1 | > 25 µM | > 65.4 µM | 205 to 206 °C | > 25 µM |  |  |  | 
COc1cc(C(=O)N/N=C/c2cc(C(C)(C)C)c(O)c(C(C)(C)C)c2)cc(OC)c1OC [Compound 5k, (E)-N′-(3,5-di-tert-butyl-4hydroxybenzylidene)-3,4,5-trimetoxybenzohydrazide] | 0.0236 µg/mL (≈ 0.0533 µM) | > 25 µM | 1.1 | > 25 µM | 1 | > 25 µM | 1 | 1 | > 25 µM | 1 | > 25 µM | 1 | 1 | > 25 µM | > 56.5 µM | 222 to 224 °C | > 25 µM |  |  |  | 
COc1cc(C(=O)N/N=C/c2ccc(F)cc2)cc(OC)c1OC [Compound 5p, (E)-N′-(4-fluorobenzylidene) - 3,4,5-trimetoxybenzohyidrazide] | 20.9 µg/mL (≈ 62.9 µM) | 1.27 µM | 3.11±0.11 | 2.69 µM | 1.46±0.06 | 2.02 µM | 1.85±0.04 | 2.34±0.06 | 4.48 µM | 0.89±0.01 | 0.96 µM | 4.38±0.38 | 1.76±0.04 | 2.16 µM | 3.82 µM | 181 to 182 °C | 1.58 µM |  |  |  | 
COc1cc(C(=O)N/N=C/c2ccc(Cl)cc2)cc(OC)c1OC [Compound 5q, (E)-N′-(4-chlorobenzylidene)-3,4,5-trimetoxybenzohyidrazide] | 28.4 µg/mL (≈ 81.4 µM) | 0.036 µM | 1.85±0.15 | 0.072 µM | 0.85±0.05 | 0.046 µM | 1.25±0.05 | 3.07±0.22 | 0.0275 µM | 2.10±0.10 | 0.024 µM | 2.75±0.25 | 0.05±0.005 | 1.05 µM | 0.06 µM | 187 to 188 °C | 0.018 µM |  |  |  | 
O=C(N/N=C/c1ccccc1)c1ccccc1 [Compound 9, (E)-N′-benzylidenebenzohydrazide] |  |  |  |  |  |  |  |  |  |  |  |  |  |  |  | 211 to 212 °C |  | > 25 µM | > 25 µM | > 25 µM | cytotoxic activity (in words) (tumor cell lines): loss of cytotoxic activity; IC50 (MDA-MB435 (melanoma) [7]; Table 4): > 25 µM
COc1cc(/C=N/NC(=O)c2ccccc2)cc(OC)c1OC [Compound 10, (E)-N′-(3,4,5-trimethoxybenzylidene)-benzohydrazide] |  |  |  |  |  |  |  |  |  |  |  |  |  |  |  | 211 to 212 °C |  | > 25 µM | > 25 µM | > 25 µM | cytotoxic activity (in words) (tumor cell lines): inactive; IC50 (MDA-MB435 (melanoma) [7]; Table 4): > 25 µM
COc1cc(NC(=O)N/N=C/c2ccccc2)cc(OC)c1OC [Compound 12, (E)-2-benzylidene-N-(3,4,5-trimetoxyphenyl) hydrazinecarboxamide] |  |  |  |  |  |  |  |  |  |  |  |  |  |  |  | 217 °C |  | > 25 µM | > 25 µM | > 25 µM | cytotoxic activity (in words) (tumor cell lines): inactive; IC50 (MDA-MB435 (melanoma) [7]; Table 4): > 25 µM
